The subject of test [1] is Erysiphe polygoni (synonym: Erysiphe betae). Nature of the test: Test on the preventive effect against cucumber powdery mildew. It is filed as in vivo. The settings on record: 216 h, test solution A 500 ppm, 5 ml per pot sprayed, cucumber cotyledon stage, 9 days after inoculation. Put shortly:
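Cucumber (Sagami Hanjiro) at cotyledon stage sprayed with 500 ppm compound (diluted from 20 wt% emulsifiable concentrate), air-dried, then inoculated with Erysiphe polygoni conidia. Kept 9 days at 20 °C in greenhouse; lesion area ratio scored in duplicate, control value = [1−(treated/untreated lesion ratio)]×100.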

Test [2] deals with Botrytis cinerea. Kind of test: Test on the preventive effect against cucumber gray mold (mycelium inoculation). The class given is in vivo. To be noted: 48 h, test solution A 500 ppm, 5 ml per pot, cucumber cotyledon, agar block inoculation, 2 days at 20° C. The procedure:
Compounds of the present invention were dissolved in a solvent for emulsion (a mixture of Sorpol (registered trademark) 3005XL (manufactured by Toho Chemical Industry Co., Ltd.): N-methylpyrrolidone: Solvesso (registered trademark) 200 (manufactured by ExxonMobil Chemical) in a ratio of 1:5:2) to prepare 20 wt % emulsifiable concentrates. Then, distilled water was added to dilute the emulsifiable concentrates to the prescribed concentration (500 ppm), and the obtained solutions were used in the following the Test Examples 1 to 8. Cucumber (varieties: Sagami Hanjiro) was seeded in 90 cm^3 plastic pot, and at the cotyledon stage, 5 ml per pot of test solution A of the compounds of the present invention was applied. On the next day, the pot was transferred in a plastic container, and an agar blocks (diameter: 5 mm) containing Botrytis cinerea which was preliminarily cultivated in a PDA medium was inoculated on the cotyledon of the cucumber treated with the solution. After the inoculation, the plastic container was covered with a plastic sheet, then placed at 20° C. and humidified for 2 days. Thus the proportion of the formed lesion in the inoculated leaves were measured to calculate the control value in accordance with the same formula as in the Test Example 1. The test was carried out in duplicate.

The test system of test [3] is Sclerotinia sclerotiorum. Nature of the test: Test on the preventive effect against cucumber stem rot. It is filed as in vivo. To be noted: 48 h, test solution A 500 ppm, 5 ml per pot, agar block inoculation, 2 days at 20° C. The protocol: Compounds of the present invention were dissolved in a solvent for emulsion (a mixture of Sorpol (registered trademark) 3005XL (manufactured by Toho Chemical Industry Co., Ltd.): N-methylpyrrolidone: Solvesso (registered trademark) 200 (manufactured by ExxonMobil Chemical) in a ratio of 1:5:2) to prepare 20 wt % emulsifiable concentrates. Then, distilled water was added to dilute the emulsifiable concentrates to the prescribed concentration (500 ppm), and the obtained solutions were used in the following the Test Examples 1 to 8. Cucumber (varieties: Sagami Hanjiro) was seeded in 90 cm^3 plastic pot, and at the cotyledon stage, 5 ml per pot of test solution A of the compounds of the present invention was applied. After drying in air, the pot was transferred in a plastic container, and an agar blocks (diameter: 5 mm) containing Sclerotinia sclerotiorum which was preliminarily cultivated in a PDA medium was inoculated to the seed leaves of the cucumber treated with the solution. After the inoculation, the plastic container was covered with a plastic sheet, and placed at 20° C. and humidified for 2 days, thus the proportion of the formed lesion in the inoculated leaves were measured to calculate the control value in accordance with the same formula as in the Test Example 1. The test was carried out in duplicate.

Test [4] relates to Blumeria graminis f. sp. tritici. Nature of the test: Test on the preventive effect against wheat powdery mildew. It is filed as in vivo. The settings on record: 168 h, test solution A 500 ppm, 5 ml per pot, wheat 1.3-leaf stage, 7 days after inoculation. The procedure:
Compounds of the present invention were dissolved in a solvent for emulsion (a mixture of Sorpol (registered trademark) 3005XL (manufactured by Toho Chemical Industry Co., Ltd.): N-methylpyrrolidone: Solvesso (registered trademark) 200 (manufactured by ExxonMobil Chemical) in a ratio of 1:5:2) to prepare 20 wt % emulsifiable concentrates. Then, distilled water was added to dilute the emulsifiable concentrates to the prescribed concentration (500 ppm), and the obtained solutions were used in the following the Test Examples 1 to 8. Wheat (varieties: Norin 61) was seeded in 90 cm^3 plastic pot, and at the 1.3-leaf stage, 5 ml per pot of test solution A of the compounds of the present invention were applied. One day after treatment, the pot was placed in an air-conditioned greenhouse (20° C.), and conidium of Blumeria graminis f. sp. tritici was inoculated to the wheat. 7 days after, the proportion of the formed lesion in the inoculated leaves were measured to calculate the control value in accordance with the same formula as in the Test Example 1. The test was carried out in duplicate.

Test [5] concerns Southern root-knot nematode (Meloidogyne incoqnita). Kind of test: Insecticidal test against Southern root-knot nematode (eggs, 96 well plate). It is filed as in vivo. The settings on record: 96 h, test solution B 100 ppm, 10 μl per well, 25° C. dark, 4 days after treatment, read-out: efficacy (unhatched eggs + inactive larvae relative to non-treated). The protocol: (§1) Compounds of the present invention were dissolved in dimethyl sulfoxide to prepare 1 wt % solutions. Then, distilled water was added to dilute the solutions to the prescribed concentration (100 ppm), and the obtained solutions were used in the following the Test Examples 9 to 12. 60 μl of a potato dextrose 1% agar medium was added to each well of a 96 well plate, and 30 μl of sterilized water containing eggs of Southern root-knot nematode (Meloidogyne incoqnita) (10 eggs/3 μl) was added to each well. Further, 10 μl per well of test solution B of the compounds of the present invention was added, and the plate was left at rest at 25° C. under dark conditions.

Test [6] has as its system Asperaillus niger. Kind of test: Test on the antifungal activity against Asperaillus niger. It is filed as cell-based. To be noted: 48 h; test solution B 100 ppm, 10 μl per well, 96 well plate, 25° C. dark, 2 days after treatment; read-out: efficacy (flora area ratio relative to non-treated well). The procedure: as §1, with “spores” for “eggs”, “Asperaillus niger” for “Southern root-knot nematode (Meloidogyne incoqnita)”, “spores/3” for “eggs/3”, “conditions. 2 days after treatment, the flora area ratio (%) was determined to calculate the efficacy (%) relative to the non-treated well in accordance with the following formula. Efficacy (%)=[1−(flora area ratio in treated plot/flora area ratio in non-treated well)]×100” for “conditions.”

Some results are limits rather than exact numbers.

In the case of `CC#Cc1cnc(CCNC(=O)c2ccccc2C(F)(F)F)c(Cl)c1` [1-001, N-[2-[3-chloro-5-(1-propynyl)pyridin-2-yl]ethyl]-2-(trifluoromethyl)benzamide], the pest or weed control at 500 µg/mL in test [1], in test [2], in test [3] and in test [4] was ≥ 70% throughout. For the same compound, in test [5], the pest or weed control at 100 µg/mL was ≥ 50%.

`O=C(NCCc1ncc(C#CC2CC2)cc1Cl)c1ccccc1C(F)(F)F` [1-002]: the pest or weed control at 500 µg/mL in test [1], in test [2], in test [3] and in test [4] was ≥ 70% each time. For the same compound, the inhibition of growth at 100 µg/mL in test [6] was ≥ 50%. The pest or weed control at 100 µg/mL in test [5] was ≥ 50%.

In the case of `CC(C)(C)C#Cc1cnc(CCNC(=O)c2ccccc2C(F)(F)F)c(Cl)c1` [1-003, N-[2-[3-chloro-5-(3,3-dimethyl-1-butynyl)pyridin-2-yl]ethyl]-2-(trifluoromethyl)benzamide], the pest or weed control at 500 µg/mL in test [1], in test [2], in test [3] and in test [4] was ≥ 70% each time. Besides, the inhibition of growth at 100 µg/mL in test [6] was ≥ 50%. Moreover, the pest or weed control at 100 µg/mL in test [5] was ≥ 50%.

Turning to `O=C(NCC(c1ncc(C#CC2CC2)cc1Cl)C1CC1)c1ccccc1C(F)(F)F` (centres unmarked) [1-009], the pest or weed control at 500 µg/mL in test [1], in test [3] and in test [4] was ≥ 70% each time. For the same compound, in test [6], the inhibition of growth at 100 µg/mL was ≥ 50%. For the same compound, the pest or weed control at 100 µg/mL in test [5] was ≥ 50%.

For the compound `CC(NC(=O)c1ccccc1C(F)(F)F)C(OCc1ccccc1)c1ncc(C#CC2CC2)cc1Cl` (centres unmarked) [1-031, N-[2-benzyloxy-2-[3-chloro-5-(cyclopropylethynyl)pyridin-2-yl]-1-methylethyl]-2-(trifluoromethyl)benzamide], the pest or weed control at 500 µg/mL in test [1], in test [2], in test [3] and in test [4] was ≥ 70% throughout. For the same compound, in test [5], the pest or weed control at 100 µg/mL is ≥ 50%.

Consider `COC(c1ncc(C#CC2CC2)cc1Cl)C(C)NC(=O)c1nccnc1C(F)(F)F` (centres unmarked) [4-004], for which the pest or weed control at 500 µg/mL in test [1], in test [2], in test [3] and in test [4] was ≥ 70% throughout.

Consider `Cn1cc(C(=O)NCCc2ncc(C#CC(C)(C)C)cc2Cl)c(C(F)F)n1` [8-002], for which the pest or weed control at 500 µg/mL in test [1], in test [2], in test [3] and in test [4] was ≥ 70% throughout. Also, the inhibition of growth at 100 µg/mL in test [6] was ≥ 50%.

As to `Cn1cc(C(=O)NCC(c2ncc(C#CC3CC3)cc2Cl)C2CC2)c(C(F)F)n1` (centres unmarked) [8-009], the pest or weed control at 500 µg/mL in test [1], in test [2], in test [3] and in test [4] was ≥ 70% each time. Also, in test [6], the inhibition of growth at 100 µg/mL was ≥ 50%.

As to `Cn1cc(C(=O)NCC2(c3ncc(C#CC4CC4)cc3Cl)CC2)c(C(F)F)n1` [8-018, N-[[1-[3-chloro-5-(cyclopropylethynyl)pyridin-2-yl]cyclopropyl]methyl]-3-difluoromethyl-1-methyl-1H-pyrazole-4-carboxamide], the pest or weed control at 500 µg/mL in test [1], in test [2], in test [3] and in test [4] was ≥ 70% in each case. The pest or weed control at 100 µg/mL in test [5] was ≥ 50%.

Turning to `CSC(CNC(=O)c1cn(C)nc1C(F)F)c1ncc(C#CC2CC2)cc1Cl` (centres unmarked) [8-020, N-[2-[3-chloro-5-(cyclopropylethynyl)pyridin-2-yl]-2-(methylthio)ethyl]-3-difluoromethyl-1-methyl-1H-pyrazole-4-carboxamide], the pest or weed control at 500 µg/mL in test [1], in test [2], in test [3] and in test [4] was ≥ 70% throughout. Besides, in test [6], the inhibition of growth at 100 µg/mL is ≥ 50%.

For `COC(=O)C(CNC(=O)c1cn(C)nc1C(F)F)c1ncc(C#CC2CC2)cc1Cl` (centres unmarked) [8-022, 2-[3-chloro-5-(cyclopropylethynyl)pyridin-2-yl]-3-(3-difluoromethyl-1-methyl-1H-pyrazole-4-carboxamide)propionic acid methyl ester], the pest or weed control at 500 µg/mL in test [1], in test [2], in test [3] and in test [4] was ≥ 70% each time.

With `CC(Cc1ncc(C#CC2CC2)cc1Cl)NC(=O)c1cn(C)nc1C(F)F` (centres unmarked) [8-024, N-[2-[3-chloro-5-(cyclopropylethynyl)pyridin-2-yl]-1-methylethyl]-3-difluoromethyl-1-methyl-1H-pyrazole-4-carboxamide], the pest or weed control at 500 µg/mL in test [1], in test [2], in test [3] and in test [4] was ≥ 70% in each case.

Turning to `CC(Cc1ncc(C#Cc2ccccc2)cc1Cl)NC(=O)c1cn(C)nc1C(F)F` (centres unmarked) [8-027], the pest or weed control at 500 µg/mL in test [1], in test [2], in test [3] and in test [4] was ≥ 70% in each case.

On to `Cc1nc(C(F)F)c(C(=O)NCC(C)c2ncc(C#CC3CC3)cc2Cl)s1` (centres unmarked) [9-002], for which the pest or weed control at 500 µg/mL in test [1], in test [2], in test [3] and in test [4] was ≥ 70% throughout. Also, the inhibition of growth at 100 µg/mL in test [6] is ≥ 50%.

For the origin of these results see patent US10029986B2, “Alkynyl pyridine-substituted amide compound and pesticide” (NISSAN CHEMICAL INDUSTRIES, LTD., priority 2014, dated 2018).
